These are literature values, as cited in US8163058B2 (Whitehurst Associates, Inc., priority 2009, dated 2012).

For this data set the following is noted: prior art description.

The structures appear in SMILES notation.

Turning to `CCCCNP(N)(N)=S` [NBPT, N-(n-butyl) thiophosphoric triamide], the Hydrolytic stability entry was “undergoes hydrolysis” and the Thermal stability result is “thermally unstable”.
